The OPERA property sets (Mansouri et al. 2018)
Where a SMILES comes first, the peptide text is derived from it.

SMILES	logP
CNc1ccc2cc3ccccc3nc2c1CO	2.1
COCCCNc1[nH]cnc2ncnc1-2	0.75
COc1ccc(C2Cc3cc(SC(C)(C)C)ccc3N(CCN(C)C)C(=O)C2OC(C)=O)cc1 (centres undefined)	5.6
Cc1nc2c3c(c(C(=O)N4CCC4)cn2c1C)CCC(c1ccccc1)O3 (centres undefined)	3.4
CCNCc1ccc(C)cc1	2.38
CC(C)(O)C1CCC2(C)CCCC(C)(O)C2C1 (centres undefined)	3.04
O=C(NC1CCCCC1)NS(=O)(=O)c1cnccc1NC1CCCCCC1	4.59
CC(C)(C)N=O	0.91
c1ccc(Cn2cccn2)cc1	1.78
CNC(=O)c1cn2c(C)c(C)nc2c2c1CCC(c1ccccc1)O2 (centres undefined)	3.6
CN(C)CCOc1c(Cl)cccc1Cl	2.57
OC(CNCC1COc2ccccc2O1)CON=C(C1CC1)C1CC1 (centres undefined)	2.22
Cc1coc2cc3oc(=O)ccc3c(C)c12	2.79
CC=C(C)C1(C)CC(O)=C(C(CCC)=NOCC)C(=O)O1 (centres undefined)	3.4
Brc1cc(Br)c(N=C2NCCN2)c(Br)c1	2.54
CSCCC(N)C(=O)NC(CC(C)C)C(=O)O (stereo not drawn) (H-Met-Leu-OH; configuration not given here)	-1.84
CC(C)=CCCC(C)=CCCC(C)(C)O	4.54
Cn1c(=O)[nH]c2ncn(C)c2c1=O	-0.22
O=c1cc(CCl)oc(Br)c1O	1.08
CCCCCI	3.62
O=C1C=C(N2CCCC2)C(=O)N1c1ccc(Cl)cc1	3
CC(=O)OC(C)(C)C1CCC2(C)CCCC3(CO3)C2C1 (centres undefined)	4.08

SMILES	logP
COC(=O)C(C)=CC1C(C(=O)OCc2cccc(OCc3ccccc3)c2)C1(C)C (centres undefined)	6.06
OCc1cnc(O)nc1O	-1.94
CC(C)CNc1ccncc1S(=O)(=O)NC(=NC#N)NC(C)C	0.88
CCOP(=O)(OCC)C(C)(C)[N+]([O-])=Cc1cccnc1	0.41
ClCC1(C(Cl)Cl)C2C(Cl)CC1(C(Cl)Cl)C(Cl)C2Cl (centres undefined)	5.19
COC(=O)C1=C(C)NC(C)=C(P2(=O)OCCCO2)C1c1ccccc1[N+](=O)[O-] (centres undefined)	1.3
COc1ccc(C(=O)NN=Cc2c(CO)ccc(C)c2O)cc1	3.34
Cc1cc(=O)[nH]c2c1cc(C)c1occ(C)c12	3.13
N#Cc1[nH]cc(-c2ccc(Cl)cc2)c1N1CCOCC1	3.5
CCCc1c(C)nc2cccc(C)n2c1=O	2.22
CCC(C)C(N)C(=O)NC(C)C(=O)NC(C)C(=O)NC(C(=O)O)C(C)CC (centres undefined) (H-IAAI-OH; configuration not given here)	-2.82
O=C(c1ccccn1)n1c(=O)[nH]cc(F)c1=O	-0.06
Cc1ccc(CO)c(C=NNC(=O)c2ccncc2)c1O	2.16
O=C1CCC(=O)N1c1cccc(Cl)c1Cl	0.9
NC(=O)c1cccc(Cn2ccnc2)c1	-0.01
O=c1[nH]c2cc(Cl)ccc2c(O)c1-c1cccc(Oc2ccccc2)c1	5.1
CC1NCCc2c1[nH]c1ccccc21 (centres undefined)	2.06
NC(Cc1ccc(O)cc1)C(=O)N1CCCC1C(=O)O (stereo not drawn) (H-Tyr-Pro-OH; configuration not given here)	-2.03
ClCC1(C(Cl)Cl)C2CC(Cl)C1(C(Cl)Cl)CC2(Cl)Cl (centres undefined)	5.75
Cc1cc(=O)n(C)c2c1cc(C)c1occ(C)c12	3.3
Oc1cc(O)c2c(c1)OC(c1ccc(O)c(O)c1)C(OCCCc1ccccc1)C2 (centres undefined)	3.78
CCC(=O)NCc1c(O)c(=O)cc(C)n1C	-0.72

SMILES	logP
CC1(C)C=[N+]([O-])C(C)(C)C1	-0.15
O=c1nc(Nc2ccccc2)[nH]c2c1ncn2CCCCO	1.26
Nc1ccn(C2CC(CO)C(O)C2O)c(=O)n1 (centres undefined)	-2.41
CCN(C)CC(=O)Nc1c(C)cccc1C	1.82
CCNC(=NC#N)NS(=O)(=O)c1cnccc1NC1CCCCCC1	1.53
CCCc1nc(N2CCOCC2)nc(N(C)C(=O)c2ccccc2)n1	2.01
Nc1nnnn1-c1cc(Cl)c(Cl)cc1Cl	2.3
NC(Cc1c[nH]c2ccccc12)C(=O)NC(Cc1ccc(O)cc1)C(=O)O (centres undefined)	-1.13
O=c1ccc2ccc3occc3c2s1	2.58
C=CCNc1nc(CCC)nc(N2CCOCC2)n1	2.37
Cc1cccc(C)c1/C=C/c1c[nH]cn1	3.35
OCCNc1ncnc2nc[nH]c12	-0.18
Nc1nnnn1-c1ccc(O)cc1	0.33
CC(C)CC(NC(=O)C(CC(C)C)NC(=O)C(CC(C)C)NC(=O)C1CCCN1)C(=O)O (centres undefined) (H-PLLL-OH; configuration not given here)	-1.06
C=CCC(C)(C(=O)OCC)S(=O)(=O)c1ccc([N+](=O)[O-])cc1 (centres undefined)	2.3
Cc1nc2c3c(c(C(N)=O)cn2c1C)CCC(c1ccccc1)O3 (centres undefined)	3.5
Clc1ccc(N2CCN(CCn3nnc4ccccc43)CC2)cc1	3.4
CCCNC1CCc2c(O)cccc2C1C (centres undefined)	2.88
FC(F)(F)c1ccccc1CNc1[nH]cnc2ncnc1-2	3.04
CCCc1nc(N)nc(N2CCOCC2)n1	0.7
